Laboratory results from patent US20060159735A1, “Method of reclaiming drug compound from liposomal drug manufacturing stream” (priority 2005, published 2006).

What was measured:
Assay type in all cases: physicochemical
[1] = Partitioning of HSPC and cholesterol into chloroform in the presence of OSI-7904; conditions: for retained in the aqueous phase: first extraction, 17 mg/mL OSI-7904 with ~0.5 mg/mL HSPC:cholesterol mix, 1:3 CHCl3:Aq, shaking 1 hour; for amounts retained in the aqueous phase: second extraction with chloroform of the aqueous phase
Method: A 17 mg/mL OSI-7904 solution containing ˜0.5 mg/mL, 2:1 molar ratio HSPC:cholesterol mix was produced and extracted by mechanical shaking for 1 hour with chloroform at the 1:3 (CHCl3:Aq) ratio. Before partition the aqueous phase was hazy and yellow in color. After extraction the upper aqueous phase was clear and yellow.
The upper aqueous phase was analyzed for HSPC, cholesterol and OSI-7904. Approximately 94% of OSI-7904 was retained in the aqueous phase and approximately 2%, 8% and 8% retained of cholesterol, DSPC and PSPC respectively. This aqueous phase was extracted a second time with chloroform. The amounts retained in the aqueous phase for PSPC, DSPC and cholesterol were approximately 65%, 100% and 67% respectively for this second extraction.

[2] = Partitioning of HSPC and cholesterol dispersions into chloroform; conditions: 1:3 CHCl3:Aq volume ratio, HPLC; for extraction efficiency with chloroform: 0.1 mg/mL cholesterol:HSPC dispersion
Method: Concentrations of 1 mg/mL and 0.1 mg/mL of the 2:1 molar ratio HSPC:cholesterol spray dried mix dispersions were produced. Then the mixes were extracted with chloroform and varying chloroform:aqueous ratios at 1:3, 1:1 and 3:1. […] The other ratios produced milky emulsions in the aqueous phase.
HSPC consists of two main components: PSPC (1-palmitoyl-2-stearoyl-sn-glyero-3-phosphocholine) and DSPC (1,2-distearoyl-sn-glycero-3-phosphocholine). […] For the 0.1 mg/mL dispersion the extraction was less efficient; being ˜95% for cholesterol, ˜63% for PSPC and ˜24% for DSPC.

[3] = Potentiometric titration of OSI-7904 (Sirius Glpka autotitrator), with and without chloroform; solubility
From the text: The ability of OSI-7904 to partition into chloroform as a function of pH was studied using a Sirius Glpka autotitrator. Attempts were first made to determine the pKas of the OSI-7904 drug substance using the Sirius autotitrator, since these values are required when determining the partition coefficients by potentiometric titration. […] It is usual practice, with a compound of low solubility, to titrate the compound with various amounts of cosolvent present to determine apparent pKas and then perform an extrapolation back to 100% aqueous to calculate the true thermodynamic pKa. However, even with cosolvent (methanol) present, precipitation of the drug was still a problem and reproducible data sets were not obtained. […] As a result, extraction of OSI-7904 with chloroform is not a practical proposition since large volumes of chloroform would be required to solubilise the drug.
In this case, the Bjerrum plot is for the titration of 10 mL of 0.33 mM OSI-7904 aqueous solution in the presence of 5 mL chloroform. Titration started at low pH. The sharp change in slope at pH˜4.5 and lack of symmetry in the curve is indicative of undissolved compound present which then dissolves as the pH is increased.

[4] = Chloroform extraction of OSI-7904 solution with trace (saturated solution) HSPC and cholesterol; conditions: 1.2 mg/mL OSI-7904, trace HSPC and cholesterol; 1:3 CHCl3:Aq
From the text: The work above had been carried out with dispersions of solid HSPC:cholesterol. It was thought that the actual permeate would only contain materials in free solution. A better model for this was considered to be saturating some water with the HSPC:cholesterol mix, filtering out the solid and working with this clarified solution. A saturated solution prepared in this way typically contained only traces of cholesterol and HSPC. It was noticed however that on one occasion when the dispersion of HSPC:cholesterol in water had been stirred continuously for approximately four days, the filtrate was opalescent and not clear and the levels of the HSPC and cholesterol were much higher. It was thought the most likely explanation for this was that initially multilamellar liposomes were formed and these were filtered out leaving only HSPC and cholesterol that are in free solution or in micelles. On extending mixing, the multilamellar liposomes are broken down to smaller particles and these are able to pass through the pores of the filter.
A 1.2 mg/mL solution of OSI-7904 was prepared containing trace levels of HSPC and cholesterol in solution (no solid present). This was extracted with chloroform in the 1:3 ratio (8.8 mL:26.5 mL, CHCl3:Aq) by manually shaking for 1 min. […] The aqueous phase was filtered through a 0.45 μm aperture filter and analyzed for OSI-7904, cholesterol and HSPC by HPLC. […]

SMILES	retained in the aqueous phase [1]	amounts retained in the aqueous phase [1]	extraction efficiency with chloroform [2] [%]	solubility in aqueous media ([3]; at low pHs)	solubility in chloroform ([3]; even at low pH, titration in presence of chloroform)	solubility ([3]; with aqueous solution present during titration, organic solvent or mixture, from Bjerrum plot, titration of 10 mL 0.33 mM aqueous solution in presence of 5 mL chloroform) [µg/mL]	levels after extraction with chloroform ([2]; 1 mg/mL cholesterol:HSPC dispersion)	change in concentration in the aqueous phase after extraction with chloroform [4]
CCCCCCCCCCCCCCCCCC(=O)OC[C@H](COP(=O)([O-])OCC[N+](C)(C)C)OC(=O)CCCCCCCCCCCCCCCCC [DSPC, 1,2-distearoyl-sn-glycero-3-phosphocholine]	~8%	~100%	~24	–	–	–	–	–
Cc1nc2ccc3ccc(CNc4ccc5c(c4)CN([C@@H](CCC(=O)O)C(=O)O)C5=O)cc3c2c(=O)[nH]1 [OSI-7904]	Approximately 94%	–	–	very insoluble	very low	< 400	–	–
CCCCCCCCCCCCCCCCCC(=O)O[C@H](COC(=O)CCCCCCCCCCCCCCC)COP(=O)([O-])OCC[N+](C)(C)C [PSPC, 1-palmitoyl-2-stearoyl-sn-glyero-3-phosphocholine]	~8%	approximately 65%	~63	–	–	–	–	–
CC(C)CCC[C@@H](C)[C@H]1CC[C@H]2[C@@H]3CC=C4C[C@@H](O)CC[C@]4(C)[C@H]3CC[C@]12C [cholesterol]	approximately 2%	~67%	~95	–	–	–	undetectable	no decrease
